Literature values, collected in patent publication US20100284970A1, “BEN[…] H1 RECEPTOR AND/OR NS4B PROTEIN” (AUSPEX PHARMACEUTICALS, INC., priority 2009, published 2010).

Molecular target: T1, hepatitis C virus NS4B protein (Hepatitis C virus genotype 1b, UniProt Q9WMX2)
T1 construct: hepatitis C virus NS4B protein
Conditions: Einav et al., Nature Biotechnology, 2008, 26, 1019-1027

T1 sequence (Q9WMX2 1712-1972): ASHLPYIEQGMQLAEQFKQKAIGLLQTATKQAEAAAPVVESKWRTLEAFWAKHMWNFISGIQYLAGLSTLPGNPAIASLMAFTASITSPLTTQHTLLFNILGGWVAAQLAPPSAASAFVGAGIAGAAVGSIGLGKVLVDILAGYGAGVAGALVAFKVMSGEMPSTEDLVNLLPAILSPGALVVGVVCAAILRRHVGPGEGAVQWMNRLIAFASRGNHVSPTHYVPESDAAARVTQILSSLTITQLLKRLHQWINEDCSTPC

In the case of `Clc1ccc(Cn2c(CN3CCCC3)nc3ccccc32)cc1` [Clemizole, 1-[(4-chlorophenyl)methyl]-2-(1-pyrrolidinylmethyl)benzimidazole], the “binding of hepatitis C virus RNA to hepatitis C virus NS4B protein” value is given as “inhibit the binding of hepatitis C virus RNA to hepatitis C virus NS4B protein”.
